# Results as given in patent US20120208776A1 (priority 2002, published 2012).
# “And” between values parts separate entries of the source, which are not always exact repeats. Equal values may be shown once. Read-outs that look alike come from different tables or passages of the source.
# Columns and labels:
# [1] = test system: cyclin D1 and p21 mRNA in MDA-MB-453 cells; assay: RT-PCR of mRNA; format: cell-based, human
# MCF7 cells = assay: Cell-cycle analysis by DNA flow cytometry; format: cell-based, human
# Procedure: Synchrony: To synchronize the cells, 3×10^5 cells were plated onto 10 cm dishes and grown for 2 days in DMEM supplemented with 10% fetal bovine serum.
# After incubation for 1-3 days, the supernatant was collected, and the cells were trypsinized, collected, and washed with phosphate buffered saline (PBS) containing 5% FBS. Cell pellets were re-suspended in 1 ml of PBS plus 5% FBS. Thereafter, 5 ml of 70% ethanol were added drop-wise, while vortexing the tube, and the mixture was stored at 4° C. Cells were centrifuged, washed with PBS plus 5% FBS, and re-suspended in 400 μl of propidium iodide (0.1 mg/ml) (Sigma Chemical Co.). 400 μl (2 mg/ml) of RNase (Sigma Chemical Co.) were added, and the cells were incubated in the dark at room temperature for 30 min.
# [2] = test system: rat liver gene expression; assay: AffyLimma microarray analysis of rat liver, actein; format: in vivo, Sprague-Dawley rats; settings: for number of genes significantly altered (B>0): actein; for Fold-change relative to control, BZRP, Microarray / Fold-change relative to control, CCND1, Microarray / Fold-change relative to control, CYP7A1, Microarray / Fold-change relative to control, HMGCR, Microarray / Fold-change relative to control, HMGCS1, Microarray / Fold-change relative to control, HSD17B7, Microarray / Fold-change relative to control, ID3, Microarray / Fold-change relative to control, NQO1, Microarray / Fold-change relative to control, S100A9, Microarray: rat liver, 35.7 mg/kg
# MDA-MB-453 cells = assay: Combination with chemotherapy agents, cell count, combination index (CI); format: cell-based, human
# [3] = Lipid analysis of rat liver; format: in vivo, Sprague-Dawley rats; settings: actein 35.7 mg/kg; 24 hours
# Procedure: (§1) Lipid analysis: Hepatic lipids were extracted by homogenization of the liver followed by addition of choloroform:methanol (2:1). After vortex and centrifugation for 10 min, the organic phase was collected and dried under nitrogen. The dried lipids were dissolved in 1% Triton X-100 in water and sonicated. Extracted hepatic lipids and plasma lipids were measured by cholesterol and triglyceride enzymatic assay kits from Infinity (Louisville, Colo.) according to the manufacturer's instruction. Free fatty acids were measured by Enzymatic assay using NEFA C kit from Wako Chemicals (Richmond, Va.). Tissue lipids were normalized by protein concentration.
# as §1, with “Hepatic” for “Lipid analysis: Hepatic”, “liver from the 24 h group,” for “liver”, “vortexing” for “vortex”, “Colo.),” for “Colo.)”, “instructions.” for “instruction.”
# [4] = Pharmacokinetic analysis of actein in serum and urine (HPLC-MS); format: in vivo; settings: female, Sprague-Dawley, rat, oral, rats, 35.7 mg/kg
# Procedure: In this study two groups of 8 female rats were each treated with: 1) 35.7 mg/kg of actein, and 2) 1/5 this dose, 7.14 mg/kg, by gastric intubation. A control group of 8 female rats was treated by gastric intubation with 1 cc of water. Afresh solution of actein, suspended in water, was prepared just before the treatment.
# Blood and urine collection: To determine the serum concentration of actein at different times during 24 hours, blood was sequentially collected from 4 animals of the group treated with 35.7 mg/kg actein at intervals of 0, 5, 15, 30, 60 minutes and 2, 4, 6, 8 and 24 hours after the administration of actein. For the 24 hour period, animals were starved with free access to water. Blood samples (0.5 ml) were collected through contusion of the retrobulbar plexus with a siliconated glass Pasteur pipette after anaesthetization with ethyl ether. Immediately after sacrifice, blood was drawn from the portal vein with a sterile syringe into vials without anticlotting agents. Ten minutes after each sampling (the time necessary for the formation of the clot), blood was centrifuged at 1500 g for 10 minutes, then serum was stored in cryogenic screw cap vials at −70° C. […]
# HPLC-MS analysis was performed, in duplicate, by Chromadex to determine the presence and quantity of actein in serum and urine samples from Sprague-Dawley rats treated with 35.7 mg/kg actein. […]
# [5] = heart failure; cited from earlier work
smiles,measurement,setting,value
CC(=O)O[C@@H]1C[C@@]23C[C@@]24CC[C@H](O[C@@H]2OC[C@@H](O)[C@H](O)[C@H]2O)C(C)(C)[C@@H]4CC[C@H]3[C@]2(C)C[C@@H]3O[C@]4(C[C@@H](C)[C@@H]3[C@@]12C)O[C@H](O)[C@@]1(C)O[C@@H]41 [actein],p21 mRNA (RT-PCR),"[1]; 3 h, 20 μg/ml",0.92 fold
same,p21 mRNA (RT-PCR),"[1]; 3 h, 40 μg/ml",1.03 fold
same,p21 mRNA (RT-PCR),"[1]; 10 h, 20 μg/ml",1.06 fold
same,p21 mRNA (RT-PCR),"[1]; 10 h, 40 μg/ml",1.19 fold
same,p21 mRNA (RT-PCR),"[1]; 24 h, 20 μg/ml",0.92 fold
same,p21 mRNA (RT-PCR),"[1]; 24 h, 40 μg/ml",1.46 fold
same,cells in G1,"MCF7 cells; 10 μg/ml, 24 h",75%
same,cells in G1,"MCF7 cells; 10 μg/ml, 48 h",77%
same,cells in G1,"MCF7 cells; 20 μg/ml, 24 h",77%
same,apoptosis (sub G1 peak),"MCF7 cells; 20 μg/ml, 48 h",approximately 1.4%
same,cells in G1,"MCF7 cells; 20 μg/ml, 48 h",87%
same,apoptosis (sub G1 peak),"MCF7 cells; 20 μg/ml, 72 h",3.6%
same,cells in G1,"MCF7 cells; 30 μg/ml, 48 h",82%
same,cells in G2/M,"MCF7 cells; 30 μg/ml, 48 h",12%
same,cells in G1,"MCF7 cells; 40 μg/ml, 24 h",74%
same,cells in G1,"MCF7 cells; 40 μg/ml, 48 h",79%
same,cells in G1,"MCF7 cells; 60 μg/ml, 48 h",77%
same,cells in G2/M,"MCF7 cells; 60 μg/ml, 48 h",18%
same,number of genes significantly altered (B>0),[2]; 6 hours,0
same,number of genes significantly altered (B>0),[2]; 24 hours,109
same,"Fold-change relative to control, BZRP, Microarray",[2]; 6 h,−0.12
same,"Fold-change relative to control, CCND1, Microarray",[2]; 6 h,0.57
same,"Fold-change relative to control, CYP7A1, Microarray",[2]; 6 h,0.045
same,"Fold-change relative to control, HMGCR, Microarray",[2]; 6 h,−0.61
same,"Fold-change relative to control, HMGCS1, Microarray",[2]; 6 h,−0.66
same,"Fold-change relative to control, HSD17B7, Microarray",[2]; 6 h,−0.99
same,"Fold-change relative to control, ID3, Microarray",[2]; 6 h,0.19
same,"Fold-change relative to control, NQO1, Microarray",[2]; 6 h,−0.64
same,"Fold-change relative to control, S100A9, Microarray",[2]; 6 h,−0.64
same,"Fold-change relative to control, BZRP, Microarray",[2]; 24 h,1.51
same,"Fold-change relative to control, CCND1, Microarray",[2]; 24 h,−2.30
same,"Fold-change relative to control, CYP7A1, Microarray",[2]; 24 h,2.04
same,"Fold-change relative to control, HMGCR, Microarray",[2]; 24 h,1.12
same,"Fold-change relative to control, HMGCS1, Microarray",[2]; 24 h,1.11
same,"Fold-change relative to control, HSD17B7, Microarray",[2]; 24 h,2.11
same,"Fold-change relative to control, ID3, Microarray",[2]; 24 h,−0.58
same,"Fold-change relative to control, NQO1, Microarray",[2]; 24 h,1.45
same,"Fold-change relative to control, S100A9, Microarray",[2]; 24 h,3.01
same,"number of viable cells, average",MDA-MB-453 cells; actein 1,148202.7
same,"number of viable cells, average",MDA-MB-453 cells; actein 10,106747.3
same,"number of viable cells, average","MDA-MB-453 cells; actein .1 (μg/ml), 96 h",174798.3
same,cholesterol level in liver vs controls,[3],0.6 fold
same,free fatty acid level in liver vs controls,[3],0.6 fold
same,triglyceride content of liver vs controls,[3],no change
same,concentration at 24 h,"[4]; serum, 24 hours, read-out: level of actein in serum",102 ng/mL
same,concentration at 24 h,"[4]; urine, 24 h, read-out: level of actein in urine",777 ng/mL
C[C@H]1O[C@@H](O[C@H]2[C@@H](O)C[C@H](O[C@H]3[C@@H](O)C[C@H](O[C@H]4CC[C@@]5(C)[C@H](CC[C@@H]6[C@@H]5CC[C@]5(C)[C@@H](C7=CC(=O)OC7)CC[C@]65O)C4)O[C@@H]3C)O[C@@H]2C)C[C@H](O)[C@@H]1O [digitoxin],therapeutic plasma concentration,[5],greater than 10 ng/ml and > 13 nM
